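Interpolation was linear, between the two tested concentrations surrounding the appropriate level; five concentrations were tested over 48 hours in 96-well plates. The concentration for 50% growth inhibition is given as GI50. TGI: total growth inhibition.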
Legend:
Assay in all cases: inhibition of tumour cell growth, NCI panel, 48 h
LOX IMVI melanoma = test system: LOX IMVI melanoma
SK-MEL-28 melanoma = test system: SK-MEL-28 melanoma
SF-539 CNS = test system: SF-539 CNS
MCF7 breast = test system: MCF7 breast
SR leukemia = test system: SR leukemia
MALME-3M melanoma = test system: MALME-3M melanoma
HCC-2998 colon = test system: HCC-2998 colon
MOLT-4 leukemia = test system: MOLT-4 leukemia
UACC-62 melanoma = test system: UACC-62 melanoma
SN12C renal = test system: SN12C renal
EKVX NSCLC = test system: EKVX NSCLC
OVCAR-5 ovarian = test system: OVCAR-5 ovarian
NCI-H23 lung = test system: NCI-H23 lung
MDA-MB-231 breast = test system: MDA-MB-231 breast
RPMI-8226 leukemia = test system: RPMI-8226 leukemia
BT-549 breast = test system: BT-549 breast
DU-145 prostate = test system: DU-145 prostate
NCI-H522 lung = test system: NCI-H522 lung
ACHN renal = test system: ACHN renal
SF-295 CNS = test system: SF-295 CNS
PC-3 prostate = test system: PC-3 prostate
SNB-19 CNS = test system: SNB-19 CNS
OVCAR-4 ovarian = test system: OVCAR-4 ovarian
HS 578T breast = test system: HS 578T breast
SK-MEL-5 melanoma = test system: SK-MEL-5 melanoma
NCI-H226 lung = test system: NCI-H226 lung
UO-31 renal = test system: UO-31 renal
COLO 205 colon = test system: COLO 205 colon
HCT-116 colon = test system: HCT-116 colon

O=C(CCCCCCSc1nc(-c2ccccc2)cc(-c2ccccc2)n1)NO
TGI (LOX IMVI melanoma): 3.84 µM
GI50 (SK-MEL-28 melanoma): 2.85 µM
TGI (SK-MEL-28 melanoma): 12.4 µM
GI50 (SF-539 CNS): 2.43 µM
TGI (SF-539 CNS): 10 µM
GI50 (MCF7 breast): 1.31 µM
TGI (MCF7 breast): 15.9 µM
GI50 (SR leukemia): 0.322 µM
TGI (SR leukemia): 3.87 µM
GI50 (MALME-3M melanoma): 1.02 µM
TGI (MALME-3M melanoma): 8.31 µM
GI50 (HCC-2998 colon): 3.07 µM
TGI (HCC-2998 colon): 11.9 µM
GI50 (MOLT-4 leukemia): 0.42 µM
TGI (MOLT-4 leukemia): 3.3 µM
GI50 (UACC-62 melanoma): 1.35 µM
TGI (UACC-62 melanoma): 3.85 µM
GI50 (SN12C renal): 2.9 µM
TGI (SN12C renal): 10.5 µM
GI50 (EKVX NSCLC): 3.96 µM
TGI (EKVX NSCLC): 17.2 µM
GI50 (OVCAR-5 ovarian): 1.84 µM
TGI (OVCAR-5 ovarian): 7.92 µM
GI50 (NCI-H23 lung): 1.97 µM
TGI (NCI-H23 lung): 5.55 µM
GI50 (MDA-MB-231 breast): 2.54 µM
TGI (MDA-MB-231 breast): 7.62 µM
GI50 (RPMI-8226 leukemia): 0.405 µM
TGI (RPMI-8226 leukemia): 3.1 µM
GI50 (BT-549 breast): 3.16 µM
TGI (BT-549 breast): 18.4 µM
GI50 (DU-145 prostate): 2.44 µM
TGI (DU-145 prostate): 10.6 µM
GI50 (NCI-H522 lung): 1.07 µM
TGI (NCI-H522 lung): 7.72 µM
GI50 (ACHN renal): 1.45 µM
TGI (ACHN renal): 3.16 µM
GI50 (SF-295 CNS): 2.18 µM
TGI (SF-295 CNS): 5.78 µM
GI50 (PC-3 prostate): 2.24 µM
TGI (PC-3 prostate): 13.4 µM
GI50 (SNB-19 CNS): 2.69 µM
TGI (SNB-19 CNS): 11.3 µM
GI50 (OVCAR-4 ovarian): 3.05 µM
TGI (OVCAR-4 ovarian): 16.7 µM
GI50 (HS 578T breast): 1.56 µM
TGI (HS 578T breast): 14.5 µM
GI50 (SK-MEL-5 melanoma): 1.46 µM
TGI (SK-MEL-5 melanoma): 3.48 µM
GI50 (NCI-H226 lung): 2.94 µM
TGI (NCI-H226 lung): 13.2 µM
GI50 (UO-31 renal): 1.09 µM
TGI (UO-31 renal): 3.85 µM
GI50 (COLO 205 colon): 2.67 µM
TGI (COLO 205 colon): 10.7 µM
GI50 (HCT-116 colon): 0.813 µM
TGI (HCT-116 colon): 10.7 µM
